Laboratory results reported in ChEMBL document CHEMBL1201862, “PubChem BioAssay data set” (2004).
One block for each compound: values may come before it. Activity calls are given as the source filed them.

How the values were obtained:
[1] = biological target: T1, Fatty acid synthase (Homo sapiens, UniProt P49327); assay: inhibition of human FAS-TE enzyme activity – biochemical, endpoint fluorescence intensity, uHTS hits, dose response (AID 624327); format: functional;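 note: fluorescence from hydrolysis of an O-methyl fluorescein acyl ester substrate by the enzyme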
T1 sequence (P49327 whole entry): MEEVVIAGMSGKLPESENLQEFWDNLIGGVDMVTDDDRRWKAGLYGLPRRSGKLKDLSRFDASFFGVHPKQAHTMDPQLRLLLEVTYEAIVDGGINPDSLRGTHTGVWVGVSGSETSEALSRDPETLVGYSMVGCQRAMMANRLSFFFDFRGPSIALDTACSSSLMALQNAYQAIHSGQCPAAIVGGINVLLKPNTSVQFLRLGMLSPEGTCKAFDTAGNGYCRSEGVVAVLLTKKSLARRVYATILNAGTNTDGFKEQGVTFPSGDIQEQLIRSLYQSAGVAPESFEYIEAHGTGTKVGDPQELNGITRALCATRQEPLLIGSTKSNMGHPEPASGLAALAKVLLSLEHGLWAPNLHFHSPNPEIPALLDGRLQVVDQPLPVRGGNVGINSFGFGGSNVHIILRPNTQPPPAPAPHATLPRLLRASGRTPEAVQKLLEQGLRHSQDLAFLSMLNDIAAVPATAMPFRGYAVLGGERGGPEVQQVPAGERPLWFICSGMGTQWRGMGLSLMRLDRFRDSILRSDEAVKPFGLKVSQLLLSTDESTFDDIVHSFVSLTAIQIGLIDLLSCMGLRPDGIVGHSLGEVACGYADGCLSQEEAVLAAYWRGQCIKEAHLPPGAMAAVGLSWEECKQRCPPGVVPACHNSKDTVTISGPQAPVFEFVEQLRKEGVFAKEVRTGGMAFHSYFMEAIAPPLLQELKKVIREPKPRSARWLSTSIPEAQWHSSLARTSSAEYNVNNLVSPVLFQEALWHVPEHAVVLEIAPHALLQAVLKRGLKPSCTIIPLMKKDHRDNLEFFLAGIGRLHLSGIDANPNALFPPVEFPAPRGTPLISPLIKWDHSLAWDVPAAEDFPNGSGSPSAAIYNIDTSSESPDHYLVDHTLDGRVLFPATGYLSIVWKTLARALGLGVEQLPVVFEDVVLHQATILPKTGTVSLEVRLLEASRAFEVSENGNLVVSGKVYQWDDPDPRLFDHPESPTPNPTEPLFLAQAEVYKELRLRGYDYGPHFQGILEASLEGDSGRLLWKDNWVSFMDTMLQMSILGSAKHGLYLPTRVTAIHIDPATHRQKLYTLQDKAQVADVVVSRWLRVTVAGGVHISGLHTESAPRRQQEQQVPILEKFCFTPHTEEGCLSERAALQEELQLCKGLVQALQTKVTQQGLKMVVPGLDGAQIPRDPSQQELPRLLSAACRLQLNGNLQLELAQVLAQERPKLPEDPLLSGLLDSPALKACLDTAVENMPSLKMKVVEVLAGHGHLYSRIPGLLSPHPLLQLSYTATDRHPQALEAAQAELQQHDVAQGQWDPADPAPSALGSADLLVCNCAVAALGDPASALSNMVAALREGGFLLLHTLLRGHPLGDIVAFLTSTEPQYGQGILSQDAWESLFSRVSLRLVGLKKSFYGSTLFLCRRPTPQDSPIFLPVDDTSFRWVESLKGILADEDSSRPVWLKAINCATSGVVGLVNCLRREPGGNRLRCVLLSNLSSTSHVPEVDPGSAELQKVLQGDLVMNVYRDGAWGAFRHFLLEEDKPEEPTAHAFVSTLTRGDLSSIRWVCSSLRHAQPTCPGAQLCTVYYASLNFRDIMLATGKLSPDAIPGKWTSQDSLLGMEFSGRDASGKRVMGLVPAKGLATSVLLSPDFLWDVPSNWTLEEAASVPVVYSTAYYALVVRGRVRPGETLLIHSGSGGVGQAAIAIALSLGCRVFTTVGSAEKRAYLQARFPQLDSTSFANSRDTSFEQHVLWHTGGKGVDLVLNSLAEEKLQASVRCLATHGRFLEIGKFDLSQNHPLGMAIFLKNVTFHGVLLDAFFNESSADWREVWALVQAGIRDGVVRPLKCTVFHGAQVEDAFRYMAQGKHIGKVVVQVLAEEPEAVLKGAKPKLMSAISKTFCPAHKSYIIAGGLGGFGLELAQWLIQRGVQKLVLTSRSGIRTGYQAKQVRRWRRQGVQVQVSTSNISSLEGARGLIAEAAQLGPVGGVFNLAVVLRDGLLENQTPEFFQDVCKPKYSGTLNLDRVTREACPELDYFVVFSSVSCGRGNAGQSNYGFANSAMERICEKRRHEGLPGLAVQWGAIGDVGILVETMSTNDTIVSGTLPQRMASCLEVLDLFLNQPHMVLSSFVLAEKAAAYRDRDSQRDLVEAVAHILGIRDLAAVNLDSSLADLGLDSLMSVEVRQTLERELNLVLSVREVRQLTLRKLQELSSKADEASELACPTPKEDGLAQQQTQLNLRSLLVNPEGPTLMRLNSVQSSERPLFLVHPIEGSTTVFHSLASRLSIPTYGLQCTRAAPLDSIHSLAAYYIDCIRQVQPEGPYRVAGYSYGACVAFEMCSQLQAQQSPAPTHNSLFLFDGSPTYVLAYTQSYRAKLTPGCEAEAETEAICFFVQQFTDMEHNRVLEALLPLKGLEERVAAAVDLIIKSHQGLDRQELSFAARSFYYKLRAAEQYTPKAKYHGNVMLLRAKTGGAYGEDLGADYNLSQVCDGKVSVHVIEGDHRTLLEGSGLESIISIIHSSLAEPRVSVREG

[2] = biological target: T1, Fatty acid synthase; assay: inhibition of human FAS-TE enzyme activity – biochemical, kinetic fluorescence intensity, dose response (AID 624326); format: functional;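 note: rate of fluorescence rise from hydrolysis of a fluorogenic O-methyl fluorescein ester substrate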
[3] = biological target: T2, Short transient receptor potential channel 4 (Mus musculus, UniProt Q9QUQ5); assay: calcium entry via TRPC4 opening agents – cell-based, HEK293 TRPC4/mu-opioid, Fluo-4 calcium, dose response (AID 434937); format: functional
T2 sequence (Q9QUQ5 whole entry): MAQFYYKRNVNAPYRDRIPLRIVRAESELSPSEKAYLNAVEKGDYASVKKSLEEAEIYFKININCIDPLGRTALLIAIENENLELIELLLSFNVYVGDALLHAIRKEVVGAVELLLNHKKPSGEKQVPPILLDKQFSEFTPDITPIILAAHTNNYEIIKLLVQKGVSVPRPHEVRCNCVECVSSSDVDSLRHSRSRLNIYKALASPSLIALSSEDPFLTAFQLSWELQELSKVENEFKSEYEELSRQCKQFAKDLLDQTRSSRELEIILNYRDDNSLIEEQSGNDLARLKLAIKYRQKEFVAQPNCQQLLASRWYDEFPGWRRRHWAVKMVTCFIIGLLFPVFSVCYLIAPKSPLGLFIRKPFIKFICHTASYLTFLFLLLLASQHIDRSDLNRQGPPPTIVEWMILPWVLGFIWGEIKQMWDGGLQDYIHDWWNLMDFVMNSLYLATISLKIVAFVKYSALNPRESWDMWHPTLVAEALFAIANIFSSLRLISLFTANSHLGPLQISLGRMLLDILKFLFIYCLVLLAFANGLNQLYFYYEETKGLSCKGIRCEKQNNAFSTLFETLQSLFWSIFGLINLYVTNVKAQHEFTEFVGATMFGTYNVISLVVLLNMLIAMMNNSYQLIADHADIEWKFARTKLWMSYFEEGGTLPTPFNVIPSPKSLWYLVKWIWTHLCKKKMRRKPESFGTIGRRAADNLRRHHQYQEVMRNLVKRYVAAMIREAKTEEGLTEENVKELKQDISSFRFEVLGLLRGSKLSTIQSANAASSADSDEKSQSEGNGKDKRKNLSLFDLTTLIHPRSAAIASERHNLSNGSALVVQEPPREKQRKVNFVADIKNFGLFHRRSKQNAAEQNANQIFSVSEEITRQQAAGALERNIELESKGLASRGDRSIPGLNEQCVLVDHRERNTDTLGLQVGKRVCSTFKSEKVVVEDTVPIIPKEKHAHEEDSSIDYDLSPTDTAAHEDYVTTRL

[4] = biological target: FAD-linked sulfhydryl oxidase ALR (Homo sapiens, UniProt P55789); assay: ALR-catalysed DTT oxidation blockers – biochemical, H2O2 detection, luminescence, cherry-pick, dose response (AID 493248)
Sequence of FAD-linked sulfhydryl oxidase ALR (P55789 whole entry): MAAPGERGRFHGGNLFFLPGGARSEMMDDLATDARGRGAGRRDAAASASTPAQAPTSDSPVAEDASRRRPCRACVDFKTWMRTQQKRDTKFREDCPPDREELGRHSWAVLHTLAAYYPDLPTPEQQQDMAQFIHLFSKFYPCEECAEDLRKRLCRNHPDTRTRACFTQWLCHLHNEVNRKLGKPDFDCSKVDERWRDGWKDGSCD

[5] = biological target: T3, High affinity choline transporter 1 (Homo sapiens, UniProt Q9GZV3); assay: human choline transporter blockers, potency – cell-based, 5-point CRC, membrane potential dye, dose response (AID 504840); format: functional
T3 sequence (Q9GZV3 whole entry): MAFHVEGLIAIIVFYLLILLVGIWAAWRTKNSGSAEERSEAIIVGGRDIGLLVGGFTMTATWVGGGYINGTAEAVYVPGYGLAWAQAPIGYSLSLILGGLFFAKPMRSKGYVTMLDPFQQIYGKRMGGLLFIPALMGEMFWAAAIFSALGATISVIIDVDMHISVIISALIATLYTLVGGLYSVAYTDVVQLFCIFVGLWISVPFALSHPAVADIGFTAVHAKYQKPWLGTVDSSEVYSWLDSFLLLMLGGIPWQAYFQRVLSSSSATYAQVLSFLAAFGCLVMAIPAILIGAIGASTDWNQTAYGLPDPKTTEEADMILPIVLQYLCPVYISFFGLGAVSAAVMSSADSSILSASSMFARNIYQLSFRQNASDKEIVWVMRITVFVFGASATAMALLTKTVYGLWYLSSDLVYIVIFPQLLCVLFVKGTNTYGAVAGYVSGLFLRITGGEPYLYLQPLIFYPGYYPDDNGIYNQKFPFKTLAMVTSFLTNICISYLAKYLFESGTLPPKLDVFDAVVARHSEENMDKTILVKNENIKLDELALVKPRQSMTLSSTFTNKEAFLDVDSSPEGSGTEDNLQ

[6] = biological target: T4, Protein skinhead-1 (Caenorhabditis elegans, UniProt P34707); format: functional
T4 sequence (P34707 whole entry): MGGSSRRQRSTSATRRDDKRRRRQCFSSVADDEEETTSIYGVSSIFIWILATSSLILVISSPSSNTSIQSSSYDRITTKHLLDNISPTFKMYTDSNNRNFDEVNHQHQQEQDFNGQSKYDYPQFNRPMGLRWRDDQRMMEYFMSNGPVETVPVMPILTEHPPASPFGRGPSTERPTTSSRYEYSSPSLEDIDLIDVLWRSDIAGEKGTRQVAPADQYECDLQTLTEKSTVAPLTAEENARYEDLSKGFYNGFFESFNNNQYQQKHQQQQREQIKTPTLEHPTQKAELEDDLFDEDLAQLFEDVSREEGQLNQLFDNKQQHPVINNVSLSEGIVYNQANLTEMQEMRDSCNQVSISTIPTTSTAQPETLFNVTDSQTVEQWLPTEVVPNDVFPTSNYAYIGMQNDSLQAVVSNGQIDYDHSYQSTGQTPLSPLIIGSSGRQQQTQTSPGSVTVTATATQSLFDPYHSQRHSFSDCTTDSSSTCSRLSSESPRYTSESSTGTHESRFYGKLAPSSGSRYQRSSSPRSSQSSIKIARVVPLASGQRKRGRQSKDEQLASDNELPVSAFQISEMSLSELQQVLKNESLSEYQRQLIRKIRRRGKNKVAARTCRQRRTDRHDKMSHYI

[7] = cells; format: functional, cell-based
[8] = cells; format: functional, cell-based; remark: listed apart in the source
[9] = Trypanosoma cruzi growth suppression in host cells – NIH3T3 host cells, beta-gal luminescence, confirmation (AID 2044); format: functional, cell-based;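 note: intracellular parasites grown in NIH/3T3 mouse fibroblasts as host cells; luminescent beta-galactosidase reporter signal from transgenic T. cruzi replicating inside host cells; inhibitors lower the luminescence signal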
[10] = NIH3T3 cell viability loss – ATP luminescence, mouse fibroblasts, counter-screen, dose response (AID 2010); format: functional, cell-based;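 note: cells exposed to compound for about 90 hours before reading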
[11] = Luminescence Cell-Based Dose Retest to Confirm Inhibitors of Cancer Stem Cells. [Related pubchem assays (depositor defined):AID2717, AID2721]; format: functional; conditions: Homo sapiens
[12] = biological target: T5, Polyadenylate-binding protein 1 (Homo sapiens, UniProt P11940); assay: MLLE binding blockers, Cy5 peptide tracer – biochemical, fluorescence polarization, Cy5-PAM2 peptide, secondary, miRNA deadenylation inhibitor project, dose response (AID 602260); format: functional; conditions: read-out: IC50_Mean
T5 sequence (P11940 whole entry, the tested form may be a part): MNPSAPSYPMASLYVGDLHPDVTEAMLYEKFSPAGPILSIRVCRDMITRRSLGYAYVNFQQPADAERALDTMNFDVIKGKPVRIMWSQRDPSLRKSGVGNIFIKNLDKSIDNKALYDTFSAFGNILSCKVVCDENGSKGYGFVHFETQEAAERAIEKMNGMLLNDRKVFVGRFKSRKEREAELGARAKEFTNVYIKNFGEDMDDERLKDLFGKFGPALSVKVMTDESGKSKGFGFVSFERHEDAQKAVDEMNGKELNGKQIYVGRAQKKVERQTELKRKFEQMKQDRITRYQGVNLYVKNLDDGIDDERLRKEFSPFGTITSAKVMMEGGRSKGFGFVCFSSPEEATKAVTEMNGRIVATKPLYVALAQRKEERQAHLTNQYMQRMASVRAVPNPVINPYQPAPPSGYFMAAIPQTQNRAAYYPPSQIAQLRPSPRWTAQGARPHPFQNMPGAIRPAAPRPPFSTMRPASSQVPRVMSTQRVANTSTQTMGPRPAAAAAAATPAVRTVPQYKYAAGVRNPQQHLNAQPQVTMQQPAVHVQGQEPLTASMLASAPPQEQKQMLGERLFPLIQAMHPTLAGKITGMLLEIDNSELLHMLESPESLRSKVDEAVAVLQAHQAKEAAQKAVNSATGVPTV

[13] = biological target: T5, Polyadenylate-binding protein 1; assay: MLLE domain peptide-binding blockers, IC50 – biochemical, fluorescence polarization, FITC-PAM2 peptide, dose response (AID 602259); format: functional; conditions: read-out: IC50_Mean
[14] = tested on: Streptococcus sp. 'group A'; assay: Streptococcus pyogenes SK(-)GAS viability under kanamycin – luminescence, BacTiterGlo, confirmation, counter-screen for streptokinase expression inhibitor project, dose response (AID 1900); format: functional, organism-based
[15] = tested on: Streptococcus; assay: GAS UMAA2166 growth inhibition – luminescence, BacTiterGlo, counter-screen for streptokinase expression inhibitor project, dose response (AID 1915); format: functional, organism-based;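 note: potency for reduction of bacterial viability or growth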
[16] = reduction of Shn3 3'UTR-driven luciferase in osteoblasts – cell-based, Clone20 osteoblasts, firefly luciferase, cherry-picked, dose response (AID 624132); format: functional;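 note: firefly luciferase luminescence from reporter carrying the Shn3 3'UTR in osteoblasts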
[17] = non-specific 3'UTR reporter inhibition in Clone20-Shn3RL – cell-based, Renilla luciferase, cherry-picked, counter-screen for Shn3 inhibitor project, dose response (AID 624133); format: functional
[18] = tested on: INS1; assay: INS-1E survival protection against cytokine death – cell-based, luminescence, retest, dose response (AID 449756); format: functional; conditions: Rattus norvegicus;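 note: cell death triggered by IL-1 beta plus TNF-alpha plus IFN-gamma mixture; protective hits raise ATP signal compared with cytokine alone wells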
[19] = biological target: Paired box protein Pax-8 (Homo sapiens, UniProt Q06710); assay: PAX8 transcriptional activity inhibition in RMG-I – RMG-I cells, luciferase, cherry-pick, dose response (AID 687027); format: functional, cell-based;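 note: luciferase reporter driven by Pax8 target thyroperoxidase promoter measured by SteadyGlo luminescence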
Sequence of Paired box protein Pax-8 (Q06710 whole entry): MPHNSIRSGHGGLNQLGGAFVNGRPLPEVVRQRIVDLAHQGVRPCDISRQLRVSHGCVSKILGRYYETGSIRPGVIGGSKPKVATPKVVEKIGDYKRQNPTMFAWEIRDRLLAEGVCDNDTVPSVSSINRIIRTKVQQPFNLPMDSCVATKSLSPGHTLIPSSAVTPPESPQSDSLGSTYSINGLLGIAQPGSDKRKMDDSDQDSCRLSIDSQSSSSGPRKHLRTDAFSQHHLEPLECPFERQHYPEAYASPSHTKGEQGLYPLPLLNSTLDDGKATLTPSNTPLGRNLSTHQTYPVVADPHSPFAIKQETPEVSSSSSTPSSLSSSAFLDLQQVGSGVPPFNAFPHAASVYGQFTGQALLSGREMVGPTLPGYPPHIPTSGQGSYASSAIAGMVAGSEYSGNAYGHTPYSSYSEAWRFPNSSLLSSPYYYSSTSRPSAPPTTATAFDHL

[20] = OVCAR-3 cell viability loss – plate reader, dry powder samples, PAX8 inhibitor project, dose response (AID 743044); format: functional, cell-based

IC50 [1]: 9.08 µM (active)
IC50 [2]: 8.77 µM (active)
Compound: CC(C)(C)C(=O)Nc1nc(C2CCCN2S(=O)(=O)c2ccc(Cl)cc2)cs1 (stereo unspecified)

IC50 [5]: 3.16 µM (active)
Compound: CC#CCN(CC#CC)S(=O)(=O)c1ccc(-n2cnnn2)c(OC)c1

IC50 [6]: > 100 µM (inactive)
Compound: CCCS(=O)(=O)N1CCC(C(=O)NCc2cccnc2)CC1

IC50 [6]: > 100 µM (inactive)
Compound: CCCCOC(=O)c1ccc(NC(=O)/C=C/c2cccs2)cc1

IC50 [1]: 0.912 µM (active)
IC50 [2]: 1.05 µM (active)
Compound: O=C(COC(=O)c1cc([N+](=O)[O-])ccc1N1CCOCC1)NCc1ccc(Cl)cc1Cl

IC50 [6]: > 100 µM (inactive)
Compound: Cc1ccc(N/C=C/C(=O)c2cccs2)cc1C

AC50 [4]: 0.582 µM (active)
IC50 [12]: > 66 µM (inactive)
IC50 [13]: > 66 µM (inactive)
Compound: O=C(NC1=NCCS1)c1csc2ccccc12

IC50 [5]: 12 µM (active)
Compound: COc1ccc(C(=O)N(C)CCCC2CCCC2)cc1OC1CCN(C(C)C)CC1

IC50 [5]: 18.2 µM (active)
Compound: Cc1cccc(C)c1NC(=O)c1ccc(CN2CCc3ccccc3C2)cc1

IC50 [5]: 14.5 µM (active)
Compound: CCCc1cc(O)c2c(C)cc(=O)oc2c1

IC50 [1]: 8.99 µM (active)
IC50 [2]: 9.8 µM (active)
Compound: Cc1ccc(C(=O)NCCNc2ncc(C(F)(F)F)cc2Cl)cc1[N+](=O)[O-]

IC50 [5]: 12.9 µM (active)
Compound: Cc1cc(C)c(NC(=O)c2ccc(CN3CCc4ccccc4C3)cc2)c(C)c1

EC50 [3]: 0.0267 µM (active)
Compound: CN(C)C(CNC(=O)Nc1cccc(Cl)c1)c1cccnc1 (stereo unspecified)

IC50 [1]: 5.37 µM (active)
IC50 [2]: 8.01 µM (active)
Compound: O=S(=O)(Nc1cccc(-n2cnnn2)c1)c1cnc(Cl)c(Cl)c1

IC50 [1]: 7.19 µM (active)
IC50 [2]: 3.75 µM (active)
Compound: CC1(C)CC(=O)C=C(c2ccc(COC(=O)c3ccccc3)cc2)C1=O

The next lines start with the compound.

Compound: CCN1CCN(Cc2cc(Br)cc(Br)c2O)CC1
EC50 [3]: 0.0667 µM (active)
AC50 [4]: 11.2 µM (active)

Compound: c1ccc(CSc2ccc(-c3ccco3)nn2)cc1
IC50 [6]: > 100 µM (inactive)

Compound: O=C(NC1=NCCS1)c1cccc(NC(=O)c2ccco2)c1
EC50 [7]: > 350 µM (not active)
EC50 [8]: > 350 µM (not active)

Compound: Cc1ccc(NC(=S)N(Cc2cccs2)Cc2cc3cccc(C)c3nc2O)cc1
EC50 [7]: > 350 µM (not active)
EC50 [8]: > 350 µM (not active)

Compound: CCN1CCN(CCCOc2ccc(-c3ccccc3)cc2)CC1
EC50 [7]: > 350 µM (not active)
EC50 [9]: 0.799 µM (active)
EC50 [8]: > 350 µM (not active)
EC50 [10]: 4.6 µM (active)
AC50 [11]: 4.69 µM (active)

Compound: Fc1ccccc1CSc1ccc(-c2ccco2)nn1
IC50 [6]: 64.6 µM (inactive)

Compound: CCn1c(=O)c(C(=O)NNC(=O)c2ccccc2F)c(O)c2ccccc21
EC50 [14]: 4.54 µM (active)
EC50 [15]: 11.5 µM (active)
EC50 [3]: 6.68 µM (active)

Compound: O=C(NNS(=O)(=O)c1ccc([N+](=O)[O-])cc1)c1cnn(-c2ccccc2)c1-n1cccc1
IC50 [1]: 4.5 µM (active)
IC50 [2]: 4.35 µM (active)

Compound: CCn1c(SCc2nc(-c3ccccc3)no2)nnc1-c1ccco1
IC50 [5]: 13.6 µM (active)

Compound: CC1(C)CC(NC(=O)CCC2CCCC2)CC(C)(C)N1
EC50 [7]: > 350 µM (not active)
EC50 [8]: > 350 µM (not active)

Compound: O=C(NC(=S)Nc1ccccn1)c1cc(-c2ccccc2)nc2ccccc12
EC50 [7]: > 350 µM (not active)
EC50 [8]: 47.1 µM (active)

Compound: Cc1ccc(Oc2ncc(CN3CC(C)OC(C)C3)s2)cc1 (stereo unspecified)
EC50 [7]: > 350 µM (not active)
EC50 [8]: > 350 µM (not active)

Compound: c1ccc(-c2noc(CSc3nc4ccccc4o3)n2)cc1
IC50 [6]: 75.7 µM (inactive)

Compound: Clc1cc(Cl)cc(C2=NC(Cc3ccccc3)CO2)c1 (stereo unspecified)
EC50 [3]: 5.31 µM (active)

Compound: C[C@H]1CCC/C=C/[C@@H]2C[C@H](O)C[C@H]2[C@@H](O)/C=C/C(=O)O1
AC50 [16]: 2.17 µM (active)
AC50 [17]: 1.7 µM (active)

Compound: O=C(N/N=C\c1c(O)ccc2ccccc12)c1ccc(Cn2cccn2)o1
EC50 [7]: 82 µM (active)
EC50 [8]: > 350 µM (not active)
AC50 [18]: 1.23 µM (active)

Compound: C[C@@H]1CN([C@H](C)CO)C(=O)c2cccc(NC(=O)Nc3cccc4ccccc34)c2O[C@H]1CN(C)C(=O)Nc1ccc(C(F)(F)F)cc1
AC50 [19]: 14.6 µM (active)
AC50 [20]: 64.2 µM (active)
